Experimental data as given in patent US11357749B2, “Methods for treating neutropenia” (Enzychem Lifesciences Corporation, priority 2014, dated 2022).

What was measured:
[1] = test system: C3; assay: C3 mRNA (RT-PCR) in HepG2 cells; assay type: cell-based, human; details: 2 hours
Protocol: A liver cell line, HepG2 (American Type Culture Collection, ATCC, Rockville, Md.), is incubated and maintained at 37° C., 5% CO2 humid atmosphere in DMEM medium. When HepG2 cells, which are known to produce complement in culture, are treated with PLAG, the activity of complement is reduced effectively, as confirmed by RT-PCR of mRNA. In the RT-PCR, 5×10^5 number of HepG2 cells/ml are distributed into 12 well plates and induced C3 for 12 hours with 10% FCS. Then PLAG is added and further cultured for 2 hours. Cells are harvested and mRNA is isolated and RT-PCR is carried out with specific primer of C3; GAPDH is used as an internal control.

[2] = test system: platelets; assay: Pilot study in pancreatic cancer patients receiving chemotherapy: platelets; assay type: in vivo, human; details: 16 patients, Gemcitabine and Erlotinib, PLAG 1,000 mg once per day orally, two cycles
Protocol: (§1) PLAG is administered to sixteen pancreatic cancer patients after chemotherapy. The subjects of this study are unoperable pancreatic cancer patients with ECOG (Eastern Cooperative Oncology Group) performance status of “0” or “1”, i.e. patients in good physical condition without much pain, able to enjoy almost normal lifestyle and thus, eligible for anticancer treatment for at least 2 months. The pancreatic cancer patients are “locally advanced” patients having tumor metastasis to the major vessels around pancreas or “Distant metastasis” patients with distant metastasis to liver, lung, bone, etc. ECOG performance status “0” refers to a patient who is asymptomatic, fully active, able to carry on all predisease activities without restriction with no pain and no problem for normal lifestyle, while “1” refers to a patient who is symptomatic but completely ambulatory with mile pain and a little problem for normal life. Anticancer (Gemcitabine and Erlotinib combo treatment) Regimen is as follows: 1,000 mg of Gemcitabine is injected once a week for three weeks (Day 1, Day 8, Day 15), and is not injected in the next one week (Day 22). Therefore, 1 cycle of anticancer treatment requires 1 month. 100 mg of Erlotinib (Tarceva) is administered once per day everyday orally. 1,000 mg of PLAG is also administered once per day orally, starting from 3 days before anticancer treatment until the last chemotherapy treatment. The PLAG treatment group and control group both completed two cycles of anticancer treatment. There is no difference among the control and PALG treatment groups in the amount or schedule of anticancer treatment.

[3] = test system: platelets; assay: Lipopolysaccharide-induced platelet reduction in mice; assay type: in vivo; details: 15 hours
Protocol: Mice are injected with 100 mg/kg phenylhydrazine (PHZ), i.p., to induce anemia and reduction of platelets. 5 mg/kg PLAG is administered to the mice orally and blood samples are taken at 3 and 13 days after. In addition, for comparison, normal mice which are not treated with phenylhydrazine are prepared as a normal group, and mice treated with PHZ and olive oil instead of PLAG are prepared as a control group. The blood samples taken from the mice are treated with 0.5 ml EDTA (Minicollect tube, Greiner bio-one, Austria) and concentration of platelet is measured using automated blood sample analyzer BC-6800 (Mindray, Shenzhen, China) by number of platelet per […] (k: 1,000).
The experiment is repeated using Tamoxifen (Tam), an anticancer agent, injected at the amount of 100 mg/kg, or lipopolysaccharide (LPS), an inflammation inducer, at the amount of 1 mg/kg to induce platelet reduction. Platelet concentration is measured 15 hours after PLAG treatment. For comparison, olive oil and PBS are used instead of PLAG as controls, respectively for the Tamoxifen and lipopolysaccharide experiment.

[4] = test system: splenic nodules, primitive progenitor cells and megakaryocytes; assay: Colony forming units in spleen (CFUs) assay in heavily irradiated mice; assay type: in vivo; details: 50 mg/kg/d i.p. or p.o.
Protocol: In order to determine the in vivo effect of PLAG on the recovery of hematopoiesis, a CFUs assay is performed in heavily irradiated mice.

[5] = test system: C4; assay: Clinical study in healthy subjects: C4 in blood; assay type: in vivo, human
[6] = test system: white blood cells and neutrophils; assay: Cyclophosphamide-induced neutropenia in mice, G-CSF with or without PLAG; assay type: in vivo; details: PLAG 25 mpk p.o. added to G-CSF 0.25 mpk i.p., cyclophosphamide-treated mice
Description: Mice receive cyclophosphamide (100 mpk, i.p.) for a period of ten days, with or without G-CSF (0.25 mpk, i.p.) or G-CSF (0.25 mpk, i.p.) plus PLAG (25 mpk, p.o.): […]

[7] = test system: neutrophils; assay: Pilot study in pancreatic cancer patients receiving chemotherapy: neutrophils (ANC); assay type: in vivo, human; details: 16 patients, Gemcitabine and Erlotinib, PLAG 1,000 mg once per day orally, two cycles
Protocol: as §1

[8] = test system: C3; assay: C3 in culture supernatant of HepG2 cells by ELISA; assay type: cell-based, human; details: HepG2, PLAG 1 to 100 μg/ml, IL-4 and TNF-α, 18 hr
Protocol: The incubated HepG2 cell lines are treated with PLAG (1˜100 μg/ml), followed by IL-4 and TNF-α, reacted for 1 hour, incubated for 18 hours at 37° C. and the supernatant isolated. Quantitation of the amount of C3 in the cellular culture medium (supernatant) from HepG2 cells is performed by ELISA using a commercially available monoclonal antibody (mAb, R&D Systems) and the manufacture's protocol; the results are presented in FIG. 3. C3 is expressed spontaneously under in vitro culture condition using 10% FCS added to HepG2 cells incubated for 12 hr. The cells are treated with different doses of PLAG from 1 to 100 μg/ml (Panel A, Panel B) or 10 and 100 μg/ml of S6I (Panel C), reacted with IL-4 and TNF-α for 1 hr and then incubated for 18 hr at 37° C. Cellular viability is confirmed using the WST-1 assay (Panel A).

CCCCC/C=C\C/C=C\CCCCCCCC(=O)OC(COC(C)=O)COC(=O)CCCCCCCCCCCCCCC (racemic) [PLAG, 1-palmitoyl-2-linoleoyl-3-acetylglycerol]
C3 expression (RT-PCR) ([1]; HepG2, 1 microgram/ml): somewhat | C3 expression (RT-PCR) ([1]; HepG2, 10 microgram/ml): entirely | patients whose platelet number dropped to less than 25,000 [2]: no patient | patients with >50% decrease in platelet count [2]: 43.8% | patients with >60% decrease in platelet count [2]: 25% | patients with >70% decrease in platelet count [2]: none | patients with anticancer treatment postponed or dose adjusted due to platelet number decrease to less than 50,000 [2]: no patient | Platelet Conc. ([3]; LPS 1 mg/kg + PLAG 1 mg/kg): 450.00 k/ul | Platelet Conc. ([3]; LPS 1 mg/kg + PLAG 2 mg/kg): 553.33 k/ul | number of splenic nodules and numbers of primitive progenitor cells and megakaryocytes [4]: marked increase | C4, After ([5]; healthy subjects n = 27, 500 mg PLAG per day oral, after 4-wk intervention): 20.8 ± 5.6 mg/dL | C4, Before ([5]; healthy subjects n = 27, before PLAG supplementation): 21.6 ± 6.6 mg/dL | increase of WBC over G-CSF alone [6]: more than 60% | increase of neutrophils over G-CSF alone [6]: more than 70% | patients with neutrophil (ANC) decrease to less than 1,500/μl [7]: 37.5% | patients with neutrophil decrease to less than 500/μl [7]: none | patients with neutrophil decrease to less than 1,000/μl [7]: 18.8% | patients with neutrophil number decrease to less than 50% [7]: 37.5% | patients with neutrophil number decrease to less than 60% [7]: 18.8% | patients with neutrophil number decrease to less than 75% [7]: none | expression of C3 in supernatant (ELISA) [8]: decreased dose-dependently
